Data: patent US6919344B2, “N-substituted indole-3-glyoxylamides having anti-asthmatic, antiallergic and immunosuppressant/immuno-modulating action” (ASTA MEDICA, Aktiengesellschaft, priority 1996, dated 2005)

Key:
recombinant human Cyp B = recombinant human Cyp B (Homo sapiens, UniProt P23284); experiment: Peptidylprolyl isomerase (PPIase) activity inhibition assay; assay type: biochemical; conditions: Cyp B incubated with 1 μM substance for 15 min, 10° C.
Procedure: Assays for the Determination of Peptidylprolyl Isomerase (PPIase) Activity and Inhibition
The PPIase activity of the cyclophilins was measured enzymatically according to Fischer et al. (1984). After isomerization of the substrate by the peptidyl prolyl isomerase, this is accessible to chymotrypsin, which cleaves the chromophore p-nitroaniline. For the determination of inhibition of the PPIase activity by substance, recombinant human Cyp B was used. The interaction of Cyp B with a potential inhibitor was carried out as follows:
A certain concentration of purified Cyp B was incubated with 1 μM substance for 15 min. The PPIase reaction was started by addition of the substrate solution to the reaction mixture which contains HEPES buffer, chymotrypsin and either test or control samples. Under these conditions, first-order kinetics were obtained with a constant Kobserved=K0+Kenz, where K0 is the spontaneous isomerization and Kenz is the rate of isomerization of the PPIase activity. The extinction values which correspond to the amount of the chromophore cleaved were measured using a Beckman DU 70 spectrophotometer at a constant reaction temperature of 10° C.
The observed residual activity in the presence of various substances was compared with the cyclophilins only treated with solvent. The results were given in % residual activity. Cyclosporin A (CsA) was used as the reference compound. […]

[1] = tested on: "late phase" eosinophilia in the BAL; experiment: Inhibition of the "late phase" eosinophilia in the BAL 24 hours after allergen challenge in guinea pigs; assay type: in vivo
Procedure: Inhibition of the “Late Phase” eosinophilia in the BAL 24 Hours after Allergen Challenge in Guinea Pigs
Male guinea pigs (200-250 g, Dunkin Hartley Shoe) were actively sensitized subcutaneously with ovalbumin (10 μg of ovalbumin+1 mg of Al(OH)3) and boosted 2 weeks later. One week after boosting with ovalbumin, the animals were exposed to an inhalation challenge with ovalbumin (0.5% strength solution) for 20-30 seconds. 24 hours later, the animals were killed by means of an overdose of urethane, exsanguinated and a bronchoalveolar lavage (BAL) was carried out using 2×5 ml of 0.9% strength physiological saline solution.
The lavage fluid was collected and centrifuged at 400 g for 10 minutes, and the pellets were suspended in 1 ml of 0.9% strength physiological saline solution. The eosinophils were counted microscopically in a Neubauer chamber after staining by means of Becton Dickinson test kit No. 5877. This test kit contains Phloxin B as a selective stain for eosinophils. The eosinophils in the BAL was [sic] counted here for each animal and expressed as eosinophils (millions/animal). For each group the mean value and standard deviation were determined. The percentage inhibition of eosinophilia for the group treated with test substance was calculated according to the following formula: (A−B)−(B−C)/(A−C)×100=% inhibition in this formula A eosinophils correspond to the untreated challenge group, B eosinophils to the treated group and C eosinophils to the unchallenged control group.
The animals were treated with a histamine H1 antagonist (azelastine; 0.01 mg/kg p.o.) 2 hours before allergen challenge to avoid death. The administration of the test substances or of the vehicle was carried out 4 hours after allergen challenge.

lymphoproliferation = experiment: Inhibition of lymphoproliferation (colorimetric MTT assay); assay type: cell-based
Text: Colorimetric Assay (Based on the MTT Test) for the Non-Radioactive Quantification of Cell Proliferation and Survival Ability
MTT is used for the quantitative determination of cell proliferation and activation, for example, in the reaction on growth factors and cytokines such as IL-2 and IL-4 and also for the quantification of the antiproliferative or toxic effects.
The assay is based on the cleavage of yellow tetrazolium salt MTT to give purple-red formazan crystals by metabolically active cells.
The cells, cultured in a 96-hole tissue culture plate, are incubated for about 4 h with yellow MTT solution. After this incubation time, purple-red formazan salt crystals are formed. These salt crystals are insoluble in aqueous solutions, but can be dissolved by addition of solubilizer and by incubation of the plates overnight.
The dissolved formazan product is quantified spectrophotometrically using an ELISA reader. An increase in the number of living cells results in an increase in the total metabolic activity in the sample. This increase correlates directly with the amount of the purple-red formazan crystals formed, which are [sic] measured by the absorption.

[2] = tested on: CD3-induced IL-2 production; experiment: Inhibition of CD3-induced IL-2 production; assay type: cell-based

recombinant human Cyp B, sequence (P23284 34-216): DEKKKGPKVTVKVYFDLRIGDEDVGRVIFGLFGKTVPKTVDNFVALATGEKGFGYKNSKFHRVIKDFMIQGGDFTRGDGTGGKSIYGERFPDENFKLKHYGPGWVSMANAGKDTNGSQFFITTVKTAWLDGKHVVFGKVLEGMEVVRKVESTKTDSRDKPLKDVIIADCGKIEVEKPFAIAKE

## O=C(Nc1ccncc1)C(=O)c1cn(Cc2ccc(F)cc2)c2ccccc12 [Ex. 1, N-(Pyridin-4-yl)-[1-(4-fluorobenzyl)indol-3-yl]glyoxylamide]
Recombinant human Cyp B
  Inhibition of PPIase activity: 80-100%
[1]; 5 mg/kg i.p. + 4 h after allergen challenge
  % Inhibition of the "late phase" eosinophilia 24 h after allergen challenge: 27.8%
[1]; 10 mg/kg i.p. + 4 h after allergen challenge
  % Inhibition of the "late phase" eosinophilia 24 h after allergen challenge: 55.4%
[1]; 30 mg/kg p.o. + 4 h after allergen challenge
  % Inhibition of the "late phase" eosinophilia 24 h after allergen challenge: 56.1%
lymphoproliferation; Conc. 0.1 μM
  inhibition at 0.1 µM: 18%
lymphoproliferation; Conc. 1 μM
  inhibition at 1 µM: 39%
lymphoproliferation; Conc. 10 μM
  inhibition at 10 µM: 61%
[2]; Conc. 0.1 μM
  inhibition at 0.1 µM: 34%
[2]; Conc. 1 μM
  inhibition at 1 µM: 72%
[2]; Conc. 10 μM
  inhibition at 10 µM: 95%
